US20070213355A1, “1H-Imidazo[4,5-C]Quinoline Derivatives in the Treatment of Protein Kinase Dependent Diseases” (priority 2003, published 2007)

Biological target: T1, PDK1 (Homo sapiens, UniProt O15530)
T1 construct: release a DNA fragment encoding amino acids 52-556 of PDK1; made in house; host or cells: Sf9 insect cells (baculovirus)
T1 sequence (O15530 52-556): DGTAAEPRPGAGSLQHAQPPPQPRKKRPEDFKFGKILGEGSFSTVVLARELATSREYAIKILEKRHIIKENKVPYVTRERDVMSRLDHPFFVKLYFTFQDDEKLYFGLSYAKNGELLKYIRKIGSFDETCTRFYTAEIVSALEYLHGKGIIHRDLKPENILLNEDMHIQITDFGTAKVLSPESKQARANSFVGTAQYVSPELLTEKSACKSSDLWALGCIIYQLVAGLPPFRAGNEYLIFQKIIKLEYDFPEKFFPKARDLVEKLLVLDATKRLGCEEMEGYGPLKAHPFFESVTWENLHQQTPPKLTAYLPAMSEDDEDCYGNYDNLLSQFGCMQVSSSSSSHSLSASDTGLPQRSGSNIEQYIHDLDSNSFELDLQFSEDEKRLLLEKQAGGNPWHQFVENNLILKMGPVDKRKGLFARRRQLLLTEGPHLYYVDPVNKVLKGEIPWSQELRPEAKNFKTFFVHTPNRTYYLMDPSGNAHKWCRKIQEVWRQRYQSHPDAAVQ
Assay: PDK1 kinase inhibition, purified GST-PDK1, 33P-ATP filter assay
Assay type: biochemical
Details: GST-PDK1, 10.0 μM ATP, casein substrate; read-out: IC50 for PDK1 inhibition (range class)
Source text: PDK1 inhibition can be measured as follows: Cloning and expression: pCMV-GST-PDK1 (G Thomas, FMI Basel, as described in Pullen, N. et al., Science, 279:707-710 (1998)) is digested with EcoR1 and Sma1 to release a DNA fragment encoding amino acids 52-556 of PDK1. This is subsequently ligated to the vector pFB-G01-GST1 with compatible ends achieved by restriction digestion with EcoR1 and Stu1. The ligation reaction is transformed into XL-1 Blue bacteria and plated on selective LB agar. Resultant colonies are cultured overnight, plasmid DNA extracted and restriction analysed. Colonies that are found to contain plasmids with the correct insert are taken for large-scale plasmid preparation and subsequent sequence analysis to confirm the expected plasmid sequence.
Production of virus: Transfer vectors containing the kinase domain of PDK1 are transfected into the DH10Bac cell line (GIBCO) and the cells are plated on selective agar plates. Colonies without insertion of the fusion sequence into the viral genome (carried by the bacteria) are blue. Single, white colonies are picked and viral DNA (bacmid) is isolated from the bacteria by standard plasmid purification procedures. Sf9 cells or Sf21 cells (American Type Culture Collection) are then transfected in 25 cm^2 flasks with the viral DNA using Celifectin reagent.
Protein expression in Sf9 cells: Virus-containing media is collected from the transfected cell culture and used for infection to increase its titer. Virus-containing media obtained after two rounds of infection is used for large-scale protein expression. For large-scale protein expression 100 cm^2 round tissue culture plates are seeded with 5×10^7 cells/plate and infected with 1 mL of virus-containing media (approx. 5 MOIs). After 3 days, the cells are scraped off the plate and centrifuged at 500 rpm for 5 minutes. Cell pellets from 10-20, 100 cm^2 plates are resuspended in 50 mL of ice-cold lysis buffer (25 mM Tris-HCl, pH 7.5, 2 mM EDTA, 1% NP-40, 1 mM DTT, 1 mMP MSF). The cells are stirred on ice for 15 minutes and then centrifuged at 5,000 rpms for 20 minutes.
Purification of GST-tagged proteins: The centrifuged cell lysate is loaded onto a 2 mL glutathione-sepharose column (Pharmacia) and washed 3× with 10 mL of 25 mM Tris-HCl, pH 7.5, 2 mM EDTA, 1 mM DTT, 200 mM NaCl. The GST-tagged proteins are then eluted by 10 applications (1 mL each) of 25 mM Tris-HCl, pH 7.5, 10 mM reduced-glutathione, 100 mM NaCl, 1 mM DTT, 10% glycerol and stored at −70° C.
Measure of enzyme activity: Tyrosine protein kinase assays with purified GST-PDK1 are carried out in a final volume of 30 μL containing 100 ng of enzyme protein, 50 mM HEPES, pH 7.6, 10 mM MgCl2, 1 mM DTT, 10 μM Na3VO4, 100 μg/mL casein, 1% DMSO, 0.1 mM EGTA, pH 8.0, 10.0 μM ATP and 0.1 μCi [γ-^33P] ATP. The activity is assayed in the presence or absence of inhibitors [compounds of formula (I)] by measuring the incorporation of ^33P from [γ^33P] ATP into appropriate substrates. The assay is carried out in 96-well plates at ambient temperature for 30 minutes under conditions described below and terminated by the addition of 20 μL of 125 mM EDTA. Subsequently, 40 μL of the reaction mixture are transferred onto Immobilon-PVDF membrane (Millipore) previously soaked for 5 minutes with methanol, rinsed with water, then soaked for 5 minutes with 0.5% H3PO4 and mounted on vacuum manifold with disconnected vacuum source. After spotting all samples, vacuum is connected and each well-rinsed with 200 μL 0.5% H3PO4. Membranes are removed and washed 4× on a shaker with 1.0% H3PO4, once with ethanol. Membranes are counted after drying at ambient temperature, mounting in Packard TopCount 96-well frame, and addition of 10 μl/well of Microscint™ (Packard). IC50 values of compounds of formula (I) are calculated by linear regression analysis of the percentage inhibition of each compound in duplicate, at four concentrations (usually 0.01, 0.1, 1 and 10 μM). […]

`COc1ccc(C#Cc2ccc3ncc4nc(C)n(-c5ccc(CCN)cc5)c4c3c2)cc1` [Example 34, 2-{4-[8-(4-Methoxy-phenylethynyl)-2-methyl-imidazo[4,5-c]quinolin-1-yl]-phenyl}-ethylamine] and `COc1cccc(C#Cc2ccc3ncc4nc(C)n(-c5ccc(CCN)cc5)c4c3c2)c1` [Example 33, 2-{4-[8-(3-Methoxy-phenylethynyl)-2-methyl-imidazo[4,5-c]quinolin-1-yl]-phenyl}-ethylamine] cannot be ordered by IC50: no more than 500 nM for the first, 500 to 1000 nM for the second.

`NCCc1ccc(-n2cnc3cnc4cc(F)c(C#Cc5ccc6c(c5)OCO6)cc4c32)cc1` [Example 30, 2-[4-(7-Fluoro-8-benzo[1,3]dioxol-5-ylethynyl-imidazo[4,5-c]quinolin-1-yl)-phenyl]-ethylamine] and `NCCCc1ccc(-n2cnc3cnc4ccc(C#Cc5ccc6c(c5)OCO6)cc4c32)cc1` [Example 12, 3-[4-(8-Benzo[1,3]dioxol-5-ylethynyl-imidazo[4,5-c]quinolin-1-yl)-phenyl]-propylamine] cannot be ordered by IC50: 500 to 1000 nM for the first, no more than 500 nM for the second.

`COc1ccc(C#Cc2ccc3ncc4ncn(-c5ccc(CCCN)cc5)c4c3c2)cc1` [Example 10, 3-{4-[8-(4-Methoxy-phenylethynyl)-imidazo[4,5-c]quinolin-1-yl]-phenyl}-propylamine] and `COc1ccc(C#Cc2ccc3ncc4ncn(-c5ccc(CCN)cc5)c4c3c2)cc1` [Example 3, 2-{4-[8-(4-Methoxy-phenylethynyl)-imidazo[4,5-c]quinolin-1-yl]-phenyl}-ethylamine] cannot be ordered by IC50: no more than 500 nM for the first, no more than 500 nM for the second.

`NCCc1ccc(-n2cnc3cnc4cc(F)c(C#Cc5ccccc5)cc4c32)cc1` [Example 26, 2-[4-(7-Fluoro-8-phenylethynyl-imidazo[4,5-c]quinolin-1-yl)-phenyl]-ethylamine] and `NCCc1ccc(-n2cnc3cnc4cc(F)c(C#Cc5cccnc5)cc4c32)cc1` [Example 29, 2-[4-(7-Fluoro-8-pyridin-3-ylethynyl-imidazo[4,5-c]quinolin-1-yl)-phenyl]-ethylamine] fall in the same range of IC50: 500 to 1000 nM for the first, 500 to 1000 nM for the second.

`Cc1nc2cnc3ccc(C#Cc4ccccc4)cc3c2n1-c1ccc(CCN)cc1` [Example 32, 2-[4-(2-Methyl-8-phenylethynyl-imidazo[4,5-c]quinolin-1-yl)-phenyl]-ethylamine] and `Cc1nc2cnc3ccc(C#Cc4cccnc4)cc3c2n1-c1ccc(CCN)cc1` [Example 35, 2-[4-(2-Methyl-8-pyridin-3-ylethynyl-imidazo[4,5-c]quinolin-1-yl)-phenyl]-ethylamine] cannot be ordered by IC50: no more than 500 nM for the first, no more than 500 nM for the second.

`COc1cccc(C#Cc2ccc3ncc4ncn(-c5ccc(CCCN)cc5)c4c3c2)c1` [Example 9, 3-{4-[8-(3-Methoxy-phenylethynyl)-imidazo[4,5-c]quinolin-1-yl]-phenyl}-propylamine] and `NCCCc1ccc(-n2cnc3cnc4ccc(C#Cc5cccnc5)cc4c32)cc1` [Example 11, 3-[4-(8-Pyridin-3-ylethynyl-imidazo[4,5-c]quinolin-1-yl)-phenyl]-propylamine] cannot be ordered by IC50: no more than 500 nM for the first, no more than 500 nM for the second.

`NCCc1ccc(-n2cnc3cnc4ccc(C#Cc5cccnc5)cc4c32)cc1` [Example 4, 2-[4-(8-Pyridin-3-ylethynyl-imidazo[4,5-c]quinolin-1-yl)-phenyl]-ethylamine] and `NCCCc1ccc(-n2cnc3cnc4ccc(C#Cc5ccccc5)cc4c32)cc1` [Example 8, 3-[4-(8-Phenylethynyl-imidazo[4,5-c]quinolin-1-yl)-phenyl]-propylamine] cannot be ordered by IC50: no more than 500 nM for the first, no more than 500 nM for the second.

`NCCCc1ccc(-n2cnc3cnc4ccc(/C=C/c5ccccc5)cc4c32)cc1` [Example 38, 3-[4-(8-trans-Styryl-imidazo[4,5-c]quinolin-1-yl)-phenyl]-propylamine] and `NCCCc1ccc(-n2cnc3cnc4ccc(C#Cc5ccc(S(N)(=O)=O)cc5)cc4c32)cc1` [Example 13, 4-{1-[4-(3-Amino-propyl)-phenyl]-1H-imidazo[4,5-c]quinolin-8-ylethynyl}-benzenesulfonamide] cannot be ordered by IC50: no more than 500 nM for the first, no more than 500 nM for the second.

`COc1cccc(C#Cc2cc3c(cc2F)ncc2ncn(-c4ccc(CCN)cc4)c23)c1` [Example 27, 2-{4-[7-Fluoro-8-(3-methoxy-phenylethynyl)-imidazo[4,5-c]quinolin-1-yl]-phenyl}-ethylamine] and `COc1ccc(C#Cc2cc3c(cc2F)ncc2ncn(-c4ccc(CCN)cc4)c23)cc1` [Example 28, 2-{4-[7-Fluoro-8-(4-methoxy-phenylethynyl)-imidazo[4,5-c]quinolin-1-yl]-phenyl}-ethylamine] cannot be ordered by IC50: 500 to 1000 nM for the first, no more than 500 nM for the second.

`NCCCc1ccc(-n2cnc3cnc4cc(Cl)c(C#Cc5cccnc5)cc4c32)cc1` [Example 23, 3-[4-(7-Chloro-8-pyridin-3-ylethynyl-imidazo[4,5-c]quinolin-1-yl)-phenyl]-propylamine] showed an IC50 of 500 to 1000 nM.
